Like-named read-outs stand apart in the source and are kept apart here.

Holding throughout (format): biochemical
For one test, the target named is AKR1C3 (Homo sapiens (Human), UniProt P42330). The test is described as follows: AKR enzyme inhibition assay, NADP+ dependent oxidation of S-tetralol, AKR1C3. To be noted: for selectivity over AKR1C2: AKR1C3 over AKR1C2; for Selectivity 1C2:1C3: ratio of AKR1C2 to AKR1C3 IC50.
A further test has as its target AKR1C1 (Homo sapiens (Human), UniProt Q04828). The test can be described thus: AKR enzyme inhibition assay, NADP+ dependent oxidation of S-tetralol, AKR1C1. To be noted: Table 2; recombinant enzyme, S-tetralol at Km; read-out: IC50 ± SD AKR1C1.
A further test concerns the target AKR1C2 (Homo sapiens (Human), UniProt P52895). The test is described as follows: AKR enzyme inhibition assay, NADP+ dependent oxidation of S-tetralol, AKR1C2 counter-screen. The settings on record: Table 2; recombinant enzyme, S-tetralol at Km; read-out: IC50 ± SD AKR1C2. Background: The purpose of a counterscreen is to sort out artefacts and off-target activity.
A further test addresses AKR1C4 (Homo sapiens (Human), UniProt P17516). The test is described as follows: AKR enzyme inhibition assay, AKR1C4. To be noted: Table 2; recombinant enzyme; read-out: IC50 ± SD AKR1C4.
Where [1] appears, read: Table 2, recombinant enzyme, S-tetralol at Km, read-out: IC50 ± SD AKR1C3.

Chain of AKR1C2 (P52895 whole entry): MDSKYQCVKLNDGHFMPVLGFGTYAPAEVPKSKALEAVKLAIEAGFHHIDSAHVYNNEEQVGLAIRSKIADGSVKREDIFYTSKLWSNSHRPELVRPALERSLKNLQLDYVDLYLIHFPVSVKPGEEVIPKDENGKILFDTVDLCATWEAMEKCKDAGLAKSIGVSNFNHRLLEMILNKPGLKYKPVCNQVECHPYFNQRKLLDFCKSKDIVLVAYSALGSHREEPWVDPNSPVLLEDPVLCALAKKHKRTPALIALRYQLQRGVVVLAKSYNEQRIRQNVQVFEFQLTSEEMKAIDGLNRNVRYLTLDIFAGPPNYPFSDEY
Chain of AKR1C1 (Q04828 whole entry): as the sequence (P52895 whole entry) above, with V38T, H47R, V54L, S87C, M151V, H170R, L172Q counted along it
Chain of AKR1C4 (P17516 whole entry): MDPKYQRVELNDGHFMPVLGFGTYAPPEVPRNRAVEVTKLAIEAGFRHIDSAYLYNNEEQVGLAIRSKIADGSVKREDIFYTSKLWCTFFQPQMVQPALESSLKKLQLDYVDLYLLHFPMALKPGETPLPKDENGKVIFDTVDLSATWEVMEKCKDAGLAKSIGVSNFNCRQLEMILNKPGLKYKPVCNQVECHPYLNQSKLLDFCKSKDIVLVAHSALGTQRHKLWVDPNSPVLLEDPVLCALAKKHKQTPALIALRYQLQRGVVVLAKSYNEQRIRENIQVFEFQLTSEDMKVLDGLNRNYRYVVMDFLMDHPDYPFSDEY
Chain of AKR1C3 (P42330 whole entry): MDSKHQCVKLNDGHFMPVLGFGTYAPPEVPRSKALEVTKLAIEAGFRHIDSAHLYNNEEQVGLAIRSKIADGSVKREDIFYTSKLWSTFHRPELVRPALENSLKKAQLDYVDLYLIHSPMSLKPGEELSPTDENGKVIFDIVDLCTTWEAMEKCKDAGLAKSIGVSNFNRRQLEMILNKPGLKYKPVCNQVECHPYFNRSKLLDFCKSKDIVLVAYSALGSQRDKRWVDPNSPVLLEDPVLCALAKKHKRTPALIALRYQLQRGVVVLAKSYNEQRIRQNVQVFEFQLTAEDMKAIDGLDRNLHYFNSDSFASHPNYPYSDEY
Description for AKR1C1: (§1) Assay of enzyme activity: The dehydrogenase activities of AKR1C1, AKR1C2, and AKR1C3 were determined by measuring the formation of NADH formation at 340 nm using Beckman DU640 spectrophotometer. […] After continuously monitoring for 5 min, the increase in UV absorption using different concentrations of enzyme were recorded to calculate the initial velocity and determine enzyme specific activity. IC50 value determination: The inhibitory potency for each compound was represented by IC50 value and measured as described before. […] The concentration of S-tetralol used in the assays for each AKR1C isoform was equal to the Km value for the respective enzyme so that IC50 values could be directly compared assuming a competitive pattern of inhibition. […] In this equation, “range” is the fitted uninhibited value minus the “background”, and “S” is a slope factor. “I” is the concentration of inhibitor. The equation assumes that y falls with increasing “I”.
Description for AKR1C2: (§2) Structure-Activity Relationship: The ability of compounds to inhibit AKR1C3 in the first instance were determined by measuring the NADP+ dependent oxidation of S-tetralol catalyzed by recombinant enzyme as described herein. […] Assay of enzyme activity: The dehydrogenase activities of AKR1C1, AKR1C2, and AKR1C3 were determined by measuring the formation of NADH formation at 340 nm using Beckman DU640 spectrophotometer. […] After continuously monitoring for 5 min, the increase in UV absorption using different concentrations of enzyme were recorded to calculate the initial velocity and determine enzyme specific activity. IC50 value determination: The inhibitory potency for each compound was represented by IC50 value and measured as described before. […] The concentration of S-tetralol used in the assays for each AKR1C isoform was equal to the Km value for the respective enzyme so that IC50 values could be directly compared assuming a competitive pattern of inhibition. […] In this equation, “range” is the fitted uninhibited value minus the “background”, and “S” is a slope factor. “I” is the concentration of inhibitor. The equation assumes that y falls with increasing “I”.
Description for AKR1C3: as §2
Description for AKR1C4: as §1

What is called IC50 is the concentration that inhibits the measured activity by half. For the compound `Cc1ccc(CNC(=O)c2cc(/C=C/C(=O)O)cc(-c3ccc4c(c3)OCCO4)c2)cc1` [Compound A1-s, (E)-3-(3-(2,3-Dihydrobenzo[b][1,4]dioxin-6-yl)-5-((4-methylbenzyl)carbamoyl)phenyl)acrylic acid], the “selectivity over AKR1C2” value on AKR1C3 worked out at 200 fold. For the same compound, the IC50 at AKR1C3 (setting [1]) is 0.11 ± 0.011 µM; on AKR1C1 it was more than 100 µM; on AKR1C2, 22 ± 4.5 µM; on AKR1C4, 53 ± 7.1 µM.

Take `C/C=C\Cc1cc(/C=C/C(=O)O)cc(C(=O)NCc2ccc(C)cc2)c1` [Compound A1-aa, (E)-3-(3-((Z)-but-2-en-1-yl)-5-((4-methylbenzyl)carbamoyl)phenyl)acrylic acid]: the “selectivity over AKR1C2” value on AKR1C3 turned out to be 200 fold. Also, the IC50 at AKR1C3 (setting [1]) amounted to 0.08 ± 0.004 µM; on AKR1C1, 81 ± 5.1 µM; at AKR1C2, 16 ± 2.5 µM; at AKR1C4, 25 ± 3.1 µM.

For `Cc1ccc(CNC(=O)c2cc(/C=C/C(=O)O)cc(-c3ccc(-n4c5ccccc5c5ccccc54)cc3)c2)cc1` [Compound A1-v, (E)-3-(4′-(9H-Carbazol-9-yl)-5-((4-methylbenzyl)carbamoyl)-[1,1′-biphenyl]-3-yl)acrylic acid], at AKR1C3, the “selectivity over AKR1C2” value was 221 fold. The half-maximal inhibitory concentration (IC50) at AKR1C3 (setting [1]) turned out to be 0.14 ± 0.015 µM; on AKR1C1, 36 ± 5.5 µM; on AKR1C2 it was 31 ± 2.8 µM; on AKR1C4, 11 ± 3.1 µM.

`Cc1ccc(CNC(=O)c2cc(/C=C/C(=O)O)cc(-c3cccc(F)c3)c2)cc1` [Compound A1-f, (E)-3-(3′-Fluoro-5-((4-methylbenzyl)carbamoyl)-[1,1′-biphenyl]-3-yl)acrylic acid]: the “selectivity over AKR1C2” value on AKR1C3 is 960 fold. The IC50 on AKR1C3 (setting [1]) is 0.05 ± 0.004 µM; on AKR1C1, more than 100 µM; at AKR1C2, 48 ± 16 µM; at AKR1C4, 16.4 ± 2 µM.

`Cc1ccc(CNC(=O)c2cc(/C=C/C(=O)O)cc(-c3ccccc3F)c2)cc1` [Compound A1-e, (E)-3-(2′-Fluoro-5-((4-methylbenzyl)carbamoyl)-[1,1′-biphenyl]-3-yl)acrylic acid]: the “Selectivity 1C2:1C3” value at AKR1C3 (Table 2) was more than 1430. For the same compound, the IC50 was 0.07 ± 0.009 µM on AKR1C3 (setting [1]), more than 100 µM on AKR1C1, more than 100 µM on AKR1C2 and 15.4 ± 1.7 µM on AKR1C4.

Consider `Cc1ccc(CNC(=O)c2cc(/C=C/C(=O)O)cc(-c3ccc(Cl)cc3)c2)cc1` [Compound A1-c, (E)-3-(4′-Chloro-5-((4-methylbenzyl)carbamoyl)-[1,1′-biphenyl]-3-yl)acrylic acid], for which the “Selectivity 1C2:1C3” value at AKR1C3 (Table 2) was found to be 333. The IC50 on AKR1C3 (setting [1]) is 0.06 ± 0.007 µM; at AKR1C1, more than 100 µM; at AKR1C2, 20 ± 9 µM; at AKR1C4 it was 6 ± 0.5 µM.

Regarding `Cc1ccc(CNC(=O)c2cc(/C=C/C(=O)O)cc(-c3ccc4ccccc4c3)c2)cc1` [Compound A1-o, (E)-3-(3-((4-Methylbenzyl)carbamoyl)-5-(naphthalen-2-yl)phenyl)acrylic acid], the “selectivity over AKR1C2” value at AKR1C3 worked out at 140 fold. For the same compound, the IC50 on AKR1C3 (read-out: IC50 AKR1C3) came to 0.1 µM; on AKR1C1, 78 ± 9.3 µM; on AKR1C2, 14 ± 4.1 µM; on AKR1C4, 6.1 ± 0.47 µM.

In the case of `C/C=C/Cc1cc(/C=C/C(=O)O)cc(C(=O)NCc2ccc(C)cc2)c1` [Compound A1-z, (E)-3-(3-((E)-But-2-en-1-yl)-5-((4-methylbenzyl)carbamoyl)phenyl)acrylic acid], on AKR1C3, the “selectivity over AKR1C2” value is on record as 354 fold. The IC50 was 0.11 µM at AKR1C3 (read-out: IC50 AKR1C3), more than 100 µM on AKR1C1, 39 ± 9 µM on AKR1C2 and 70 ± 11 µM at AKR1C4.

For the compound `Cc1ccc(CNC(=O)c2cc(/C=C/C(=O)O)cc(-c3ccc4c(c3)OCO4)c2)cc1` [Compound A1-t, (E)-3-(3-(Benzo[d][1,3]dioxol-5-yl)-5-((4-methylbenzyl)carbamoyl)phenyl)acrylic acid], the IC50 at AKR1C3 (read-out: IC50 AKR1C3) was 0.11 µM; at AKR1C1, more than 100 µM; at AKR1C2, 36 ± 9.7 µM; at AKR1C4, 16 ± 1.6 µM.

Regarding `Cc1ccc(CNC(=O)c2cc(/C=C/C(=O)O)cc(-c3ccc(Br)cc3)c2)cc1` [Compound A1-b, (E)-3-(4′-Bromo-5-((4-methylbenzyl)carbamoyl)-[1,1′-biphenyl]-3-yl)acrylic acid], the IC50 at AKR1C3 (read-out: IC50 AKR1C3) amounted to 0.09 µM; at AKR1C1, 107 ± 8 µM; at AKR1C2, 25 ± 7 µM; on AKR1C4, 6.5 ± 0.6 µM.
